In a melting point compilation (Tetko et al.; mined from patent text by program, amines drawn as free bases though some values may be those of a salt):

**Q.** For `O=C1CN2Cc3cc(OCCCCCCO)ccc3N=C2N1`, which melting point is on record?
**A.** The melting point was 236 to 237 °C.

**Q.** Which melting point does the source give for `Cc1nnc(-c2ccc3occ(-c4ccc5sccc5c4)c3c2)o1` here?
**A.** The melting point was 159 to 160 °C.

**Q.** Which melting point does the source give for `CC(=O)NN=C(C)c1ccc(C)nc1` here?
**A.** The melting point was 178 °C.

**Q.** With `COc1cc(C)c(C2=C(C)CN(O)C=C2C)c(C)c1` as the molecule, how does the melting point read?
**A.** The melting point was 194 to 195 °C.

**Q.** With `CN1CC[C@@H](c2c(O)cc(O)c3c(=O)cc(-c4cccc(Cl)c4)oc23)[C@@H]1CO` as the molecule, how does the melting point read?
**A.** The melting point was 146 to 147 °C.

**Q.** With `CC(C)(C)C(=O)CC(C(=O)C(C)(C)C)n1cncn1` (stereo not given) as the molecule, how does the melting point read?
**A.** The melting point was 66 to 69 °C.

**Q.** For `Cc1cccc(C(N)=O)c1Nc1nc(Nc2ccc3c(c2)C(C)(C)CCC(=O)N3)ncc1Cl`, which melting point is on record?
**A.** Its melting point is 220 to 222 °C.

**Q.** For `COc1ccc(C)cc1NC(=O)Nc1ccc(N2CCN(C(=O)Oc3c(C)cccc3Cl)CC2)cc1`, which melting point is on record?
**A.** The melting point was 146 to 148 °C.

**Q.** Which melting point does the source give for `CC(C)(C)CC(NC(=O)c1ccccc1)Nc1c(Nc2cccnc2Cl)c(=O)c1=O` (stereo not given) here?
**A.** Its melting point is 259 to 260 °C.

**Q.** For `O=C1CC(c2cccc(-c3noc(CCCO)n3)c2)=Nc2ccc(-c3ccc(F)cc3)cc2N1`, which melting point is on record?
**A.** Its melting point is 220 to 222 °C.

**Q.** Which melting point does the source give for `CCCN(CCC)Cc1nc(-c2ncn3c2CN(C)C(=O)c2c(Br)cccc2-3)no1` here?
**A.** The melting point was 135 to 145 °C.

**Q.** With `Oc1ccc(Nc2cnc3cc(Cl)ccc3c2)cc1` as the molecule, how does the melting point read?
**A.** Its melting point is 218 °C.

**Q.** For `N#Cc1cc2c3ccccc3[nH]c(=O)n2n1`, which melting point is on record?
**A.** The melting point was 302 to 304 °C.

**Q.** For `COCn1ccnc1C(O)(c1ccccc1)c1ccc(F)cc1` (stereo not given), which melting point is on record?
**A.** The melting point was 150 °C.

**Q.** With `O=C(O)C1=Cc2cc(-c3ccccc3)ccc2OC1C(F)(F)F` (stereo not given) as the molecule, how does the melting point read?
**A.** The melting point was 197 to 198 °C.

**Q.** Which melting point does the source give for `Cc1nc(-c2cccc(-n3cnc4cc(I)ccc43)c2)cs1` here?
**A.** Its melting point is 163 to 164 °C.

**Q.** Which melting point does the source give for `CCc1c(C(=O)NN2CCCCC2)nc(-c2ccccc2Cl)n1-c1ccc(Cl)cn1` here?
**A.** The melting point was 217 to 219 °C.

**Q.** Which melting point does the source give for `C[C@@H]1S[C@@H](C(=O)Nc2ccc(CN3C(=O)CN(C)C3=O)cc2)Cc2cc3c(cc2C1=O)OCO3` here?
**A.** The melting point was 228 to 230 °C.

**Q.** With `COc1ccc(-c2nc(-c3cccnc3)c(C)n2C)c(OC)c1` as the molecule, how does the melting point read?
**A.** Its melting point is 129 to 131 °C.

**Q.** Which melting point does the source give for `COc1cccc(/C(C#N)=C/c2ccc(OC)c(OC3CCCC3)c2)c1` here?
**A.** Its melting point is 83 to 85 °C.

**Q.** With `COC(=O)Nc1nccc(Oc2ccc3c(C(=O)Nc4cccc(C(F)(F)F)c4)cccc3c2)n1` as the molecule, how does the melting point read?
**A.** The melting point was 199 to 200 °C.

**Q.** For `CC(=Cc1ccc(F)cc1F)C(=O)O`, which melting point is on record?
**A.** Its melting point is 126 to 128 °C.

**Q.** With `COC(=S)c1cnccc1Cc1ccccc1` as the molecule, how does the melting point read?
**A.** The melting point was 98 to 99 °C.

**Q.** Which melting point does the source give for `CCCCc1ncc(CNC(C)(Cc2cccs2)C(=O)O)n1Cc1ccccc1Cl` (stereo not given) here?
**A.** Its melting point is 109 to 112 °C.

**Q.** For `COC(=O)[C@@H]1CSC(=S)N1CC(C)(C)S`, which melting point is on record?
**A.** The melting point was 126 to 127 °C.

**Q.** With `CN1C=C(S(=O)(=O)C(F)(F)F)C(Cl)(c2ccc(Cl)cc2)C1` (stereo not given) as the molecule, how does the melting point read?
**A.** The melting point was 117 to 119 °C.

**Q.** Which melting point does the source give for `NS(=O)(=O)c1ccc(-n2nc(CCCNC(=O)Nc3cccc(C(F)(F)F)c3)cc2-c2ccccc2)cc1` here?
**A.** Its melting point is 176 °C.

**Q.** Which melting point does the source give for `Cc1nn(-c2ccc(C(F)(F)F)cn2)cc1COc1cccc(CC(=O)O)c1` here?
**A.** Its melting point is 142 to 143 °C.

**Q.** With `Cc1ccc(N2C(=O)C(O)=C(C(=O)c3ccc(C(C)C)cc3)C2c2ccc(OC(C)C)cc2)nn1` (stereo not given) as the molecule, how does the melting point read?
**A.** The melting point was 280 to 281 °C.

**Q.** Which melting point does the source give for `Cn1c(Cl)cnc1CN1C(=O)C2(COc3cc4c(cc32)OCCO4)c2ccccc21` (stereo not given) here?
**A.** The melting point was 91 to 95 °C.

**Q.** Which melting point does the source give for `Cn1nnnc1CC(O)(c1ccccc1)c1ccccc1` here?
**A.** The melting point was 175 to 176 °C.

**Q.** With `O=S1(=O)N=CN(C2CC2)c2c1ccc(Br)c2F` as the molecule, how does the melting point read?
**A.** Its melting point is 244 to 247 °C.

**Q.** With `CC(CC(N)=O)(c1ccc(O)cc1)c1ccc(O)cc1` as the molecule, how does the melting point read?
**A.** The melting point was 216 °C.

**Q.** With `Clc1ccc(C=CC=Cc2ccccc2)cc1` as the molecule, how does the melting point read?
**A.** The melting point was 161 °C.

**Q.** Which melting point does the source give for `CON=CC(C)(C)C(O)(COc1cccc2ccccc12)Cn1ccnc1` (stereo not given) here?
**A.** Its melting point is 177 to 178 °C.

**Q.** Which melting point does the source give for `CS(=O)(=O)Oc1ccc2cc(CO)ccc2c1` here?
**A.** Its melting point is 96 to 98 °C.

**Q.** For `C=CC(=O)OCC(=O)OCCCCCCOC(=O)COC(=O)C=C`, which melting point is on record?
**A.** Its melting point is 66 °C.

**Q.** For `Cc1ccccc1-c1ccc(C(=O)N2Cc3ccc(C(=O)NCc4ccc(OC(F)(F)F)cc4)n3Cc3ccccc32)cc1C`, which melting point is on record?
**A.** Its melting point is 147 to 149 °C.

**Q.** Which melting point does the source give for `CC(=O)N(N)c1ccc(C(F)(F)F)cc1NC(=O)c1ccccc1` here?
**A.** Its melting point is 212 to 214 °C.

**Q.** Which melting point does the source give for `CC1OC(Oc2ccc(C(=O)c3ccc(C#N)cc3)cc2)C(O)C(O)C1O` (stereo not given) here?
**A.** The melting point was 96 °C.

**Q.** For `CCCCCCCCCCCC1N(C(C)=O)c2ccccc2-c2c([N+](=O)[O-])cnn21` (stereo not given), which melting point is on record?
**A.** Its melting point is 83 to 85 °C.

**Q.** Which melting point does the source give for `O=C(O)COc1ccc([C@H]2c3ccc(O)cc3OC[C@H]2c2ccccc2)cc1` (racemic) here?
**A.** Its melting point is 178 °C.

**Q.** Which melting point does the source give for `Cc1ccc(N)cc1Nc1nccc(-c2ccc(Cl)nc2)n1` here?
**A.** Its melting point is 117 to 118 °C.

**Q.** Which melting point does the source give for `CC(C)(C)OC(=O)[C@H](CCSCc1cn(C(c2ccccc2)(c2ccccc2)c2ccccc2)cn1)NC(=O)OCc1ccccc1` here?
**A.** The melting point was 183 to 185 °C.

**Q.** For `Cc1cc(Br)cc(C(=O)O)c1N`, which melting point is on record?
**A.** Its melting point is 245 °C.

**Q.** Which melting point does the source give for `Cn1c(C=O)cc2cccc(F)c21` here?
**A.** Its melting point is 61 to 63 °C.

**Q.** With `O=C(NCCc1ccccc1CCl)c1ccc([N+](=O)[O-])cc1` as the molecule, how does the melting point read?
**A.** The melting point was 126 °C.

**Q.** With `CC(=O)CCOc1c(-c2ccc(S(C)(=O)=O)cc2)cnn(-c2ccc(F)c(F)c2)c1=O` as the molecule, how does the melting point read?
**A.** Its melting point is 134 to 135 °C.

**Q.** With `O=C(NCCCN1CC=C(c2ccc(Cl)cc2)CC1)C(F)(F)F` as the molecule, how does the melting point read?
**A.** Its melting point is 105 to 107 °C.

**Q.** Which melting point does the source give for `COc1ccccc1Cn1c(-c2cc(OC)c(OC)c(OC)c2)nc2ccccc21` here?
**A.** Its melting point is 136 °C.

**Q.** With `O=C(c1ccco1)n1sc2ccccc2c1=O` as the molecule, how does the melting point read?
**A.** The melting point was 157 to 161 °C.

**Q.** Which melting point does the source give for `Nc1cccc(CN2CCN(C(c3ccccc3)c3ccccc3)CC2)c1` here?
**A.** Its melting point is 104 to 106 °C.

**Q.** With `O=C1Nc2ccc(Cl)cc2C(OCc2ccccn2)(C(F)(F)F)CN1C1CC1` (stereo not given) as the molecule, how does the melting point read?
**A.** Its melting point is 170 to 172 °C.

**Q.** Which melting point does the source give for `CC(C)(C)c1ccc(CCOc2ccnc3c(F)cccc23)cc1` here?
**A.** The melting point was 81 to 82 °C.

**Q.** With `Cc1cc(C)c(C(C#N)c2nc(C)nc(Cl)c2C)c(C)c1` (stereo not given) as the molecule, how does the melting point read?
**A.** Its melting point is 100 to 102 °C.

**Q.** Which melting point does the source give for `CCCCC(=O)Oc1ccc(-c2nc(-c3ccc(Cl)cc3)c(CC(=O)O)s2)cc1` here?
**A.** Its melting point is 197 to 199 °C.

**Q.** Which melting point does the source give for `COc1nc2c(c(OC)n1)C(c1ccc(F)c(OC)c1)C1=C(COC1=O)N2` (stereo not given) here?
**A.** Its melting point is 267 to 270 °C.

**Q.** With `Fc1cc2c(cc1F)C(Cl)Cc1ccccc1S2` (stereo not given) as the molecule, how does the melting point read?
**A.** The melting point was 68 to 71 °C.

**Q.** Which melting point does the source give for `CC(C)Cn1nc(C(=O)c2cccc(O)c2)c2ccccc21` here?
**A.** The melting point was 108 to 110 °C.

**Q.** With `CC1(C)CC(S(=O)(=O)Cc2cc3c(cc2Cl)OCO3)=NO1` as the molecule, how does the melting point read?
**A.** Its melting point is 170 °C.

**Q.** Which melting point does the source give for `CCNC1CCN(c2c(F)cc3c(=O)c(C(=O)O)cn(C4CC4)c3c2F)C1` (stereo not given) here?
**A.** Its melting point is 236 to 238 °C.

**Q.** Which melting point does the source give for `CCCCN(Cc1ccc(-c2ccccc2-c2nnnn2C(c2ccccc2)(c2ccccc2)c2ccccc2)cc1)c1cc(C)nc(C)n1` here?
**A.** The melting point was 125 to 127 °C.

**Q.** For `CC(C)(C)c1cc(CCC(=O)NNC(=O)C=Cc2ccccc2)cc(C(C)(C)C)c1O`, which melting point is on record?
**A.** The melting point was 224 to 225 °C.

**Q.** For `CCCCc1nnc(SCc2ccc(OC)cc2)n1Cc1ccc(O)cc1`, which melting point is on record?
**A.** Its melting point is 130 to 131 °C.

**Q.** With `N#Cc1ccc2c(c1)C(c1ccccc1F)=NCC(OP(=O)(N1CCOCC1)N1CCOCC1)=N2` as the molecule, how does the melting point read?
**A.** The melting point was 194 to 197 °C.

**Q.** Which melting point does the source give for `COc1cc2cnn(CCCl)c(=O)c2cc1OC` here?
**A.** Its melting point is 181 to 183 °C.

**Q.** With `CCC1CC(=O)N(Cc2cccc(NS(C)(=O)=O)c2)N=C1c1ccc(OC)c(OC2CCCC2)c1` (stereo not given) as the molecule, how does the melting point read?
**A.** The melting point was 113 °C.

**Q.** Which melting point does the source give for `CCn1nc(-c2ccc(F)cc2)c(C(C)=O)c(Nc2cccc3ncccc23)c1=O` here?
**A.** The melting point was 218 °C.

**Q.** For `O=C(C1COc2ccc([N+](=O)[O-])cc21)N1CCCCC1` (stereo not given), which melting point is on record?
**A.** The melting point was 108 to 114 °C.

**Q.** Which melting point does the source give for `Nc1ncc(Cc2ccc3c(c2)CCCN3)c(N)n1` here?
**A.** The melting point was 284 to 287 °C.
